The record followed here is ChEMBL document CHEMBL5506051, “Structure-Activity Relationships toward the Identification of a High-Potency Selective Human Toll-like Receptor-7 Agonist” (J Med Chem, 2024).

The species named for data set [1] is Homo sapiens. The data set is described as follows: Selectivity index, ratio of EC50 for agonist activity at human TLR7 in HEK-Blue hTLR7 cells to EC50 for agonist activity at human TLR8 in HEK-Blue hTLR8 cells. Format: cell-based.
For data set [2], the target named is T1, Toll-like receptor 7 (Homo sapiens, UniProt Q9NYK1).
T1 sequence (Q9NYK1 whole entry): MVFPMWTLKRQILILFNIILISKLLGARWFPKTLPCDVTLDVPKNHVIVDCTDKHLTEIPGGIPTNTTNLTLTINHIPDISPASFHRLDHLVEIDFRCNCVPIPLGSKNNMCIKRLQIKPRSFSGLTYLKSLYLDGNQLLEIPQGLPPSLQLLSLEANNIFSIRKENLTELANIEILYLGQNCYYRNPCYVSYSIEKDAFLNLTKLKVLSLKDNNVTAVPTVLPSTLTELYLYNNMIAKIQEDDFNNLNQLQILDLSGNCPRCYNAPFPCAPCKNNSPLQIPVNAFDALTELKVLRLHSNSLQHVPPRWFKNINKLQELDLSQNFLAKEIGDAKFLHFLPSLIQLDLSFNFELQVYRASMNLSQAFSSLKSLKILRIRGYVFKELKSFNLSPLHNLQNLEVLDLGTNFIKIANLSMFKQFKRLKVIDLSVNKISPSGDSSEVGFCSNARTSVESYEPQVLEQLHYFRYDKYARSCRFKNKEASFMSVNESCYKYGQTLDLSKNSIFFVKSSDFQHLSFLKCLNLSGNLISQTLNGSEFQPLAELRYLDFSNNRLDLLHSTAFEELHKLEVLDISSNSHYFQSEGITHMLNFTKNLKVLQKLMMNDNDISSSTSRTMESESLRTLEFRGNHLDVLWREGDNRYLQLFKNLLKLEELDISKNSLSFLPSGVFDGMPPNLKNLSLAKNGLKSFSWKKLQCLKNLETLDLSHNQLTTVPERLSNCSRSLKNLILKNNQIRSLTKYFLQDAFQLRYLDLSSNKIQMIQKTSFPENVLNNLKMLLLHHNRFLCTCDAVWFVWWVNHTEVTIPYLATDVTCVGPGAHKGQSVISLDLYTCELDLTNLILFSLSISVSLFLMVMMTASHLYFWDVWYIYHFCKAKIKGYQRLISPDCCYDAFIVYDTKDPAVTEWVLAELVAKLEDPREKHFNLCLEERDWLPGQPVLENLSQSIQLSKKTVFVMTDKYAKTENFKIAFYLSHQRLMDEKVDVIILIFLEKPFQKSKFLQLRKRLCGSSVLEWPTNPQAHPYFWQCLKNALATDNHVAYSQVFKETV
In words: Agonist activity at human TLR7 in HEK-Blue hTLR7 cells assessed as increase in inducible SEAP level incubated for overnight by QUANTI-Blue reagent based assay. In kind it is cell-based.

Data set [3] deals with T2, Toll-like receptor 7 (Homo sapiens) (UniProt Q9NYK1).
T2 sequence (whole entry): T1 sequence (Q9NYK1 whole entry)
In words: Potency index, ratio of BBIQ EC50 to test compound EC50 for agonist activity at human TLR7 in HEK-Blue hTLR7 cells assessed as increase in inducible SEAP level incubated for overnight by QUANTI-Blue reagent based assay. The following applies: filed as agonist. In kind it is cell-based.

Data set [4] deals with T3, Toll-like receptor 8 (Homo sapiens, UniProt Q9NR97).
T3 sequence (Q9NR97 whole entry): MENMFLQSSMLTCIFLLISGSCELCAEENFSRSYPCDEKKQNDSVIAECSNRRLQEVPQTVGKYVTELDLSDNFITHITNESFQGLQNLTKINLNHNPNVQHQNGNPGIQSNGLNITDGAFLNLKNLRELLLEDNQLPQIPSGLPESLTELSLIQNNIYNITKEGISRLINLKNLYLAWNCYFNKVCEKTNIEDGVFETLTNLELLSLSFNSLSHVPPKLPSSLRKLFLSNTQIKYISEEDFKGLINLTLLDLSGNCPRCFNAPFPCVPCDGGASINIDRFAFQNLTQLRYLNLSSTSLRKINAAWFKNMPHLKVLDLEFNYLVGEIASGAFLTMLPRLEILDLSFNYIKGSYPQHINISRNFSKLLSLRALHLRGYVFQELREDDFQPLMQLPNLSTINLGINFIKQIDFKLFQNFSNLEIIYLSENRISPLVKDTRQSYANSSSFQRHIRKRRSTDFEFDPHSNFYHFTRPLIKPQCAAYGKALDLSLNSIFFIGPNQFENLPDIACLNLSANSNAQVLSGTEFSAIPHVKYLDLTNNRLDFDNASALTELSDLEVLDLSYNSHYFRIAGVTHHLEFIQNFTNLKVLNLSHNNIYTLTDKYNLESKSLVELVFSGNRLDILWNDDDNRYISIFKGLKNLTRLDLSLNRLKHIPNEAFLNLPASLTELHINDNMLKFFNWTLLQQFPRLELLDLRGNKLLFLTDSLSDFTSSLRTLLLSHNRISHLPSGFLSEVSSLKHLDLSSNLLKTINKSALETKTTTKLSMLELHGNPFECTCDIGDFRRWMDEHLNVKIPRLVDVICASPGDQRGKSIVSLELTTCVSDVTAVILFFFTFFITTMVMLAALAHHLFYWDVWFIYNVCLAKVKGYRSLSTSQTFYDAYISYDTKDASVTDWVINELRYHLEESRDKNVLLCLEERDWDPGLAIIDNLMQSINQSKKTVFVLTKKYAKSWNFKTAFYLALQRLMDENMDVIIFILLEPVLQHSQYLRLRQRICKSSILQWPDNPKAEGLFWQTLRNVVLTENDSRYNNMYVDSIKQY
In words: Agonist activity at human TLR8 in HEK-Blue hTLR8 cells assessed as increase in inducible SEAP level incubated for overnight by QUANTI-Blue reagent based assay. Format: cell-based.

Data set [5] deals with Panel NCI-60 (60 carcinoma cell lines). The data set is described as follows: Cytotoxicity against human Panel NCI-60 (60 carcinoma cell lines) at <=10 uM. In kind it is toxicity, cell-based.
For data set [6], the species on record is Homo sapiens. The data set is described as follows: Selectivity ratio of agonist activity at human TLR8 to agonist activity at human TLR7.

Each structure is given as a SMILES string.

As a reminder, the EC50 is the concentration needed to bring the measured effect to its halfway point. For the molecule `CCCCc1nc2c(N)nc3ccccc3c2n1Cc1ccc(C(N)=O)cc1`, the results for the Ratio EC50 in data set [1] and in data set [3] were 57 and 3, respectively. Further, the EC50 worked out at 0.32 µM in data set [2] and 18.2 µM in data set [4].
For `CCCCc1nc2c(N)nc3ccccc3c2n1Cc1ccc(C(=O)NN)cc1`, the EC50 in data set [2] came to 1.1 µM.
`CCCCc1nc2c(N)nc3ccccc3c2n1Cc1ccc(C(=O)NC)cc1`: the values for the Ratio EC50 in data set [1] and in data set [3] were 159 and 8, respectively. In addition, the EC50 in data set [2] came out at 0.2 µM; in data set [4], 31.8 µM. Also, the Activity result in data set [5] is listed as “Non-Toxic”.
Regarding `CCCCCCCCNC(=O)c1ccc(Cn2c(CCCC)nc3c(N)nc4ccccc4c32)cc1`, the Activity entry in data set [5] is on record as “Non-Toxic”.
On to `CC(C)Cn1cnc2c(N)nc3ccccc3c21` [IMIQUIMOD], for which, in data set [2], the EC50 is 8.29 µM.
Regarding `CCCCc1nc2c(N)nc3ccccc3c2n1Cc1ccc(C(=O)NCC(C)(C)O)cc1`, the EC50 in data set [2] came out at 0.31 µM; in data set [4], 25.8 µM.
Turning to `CCCCc1nc2c(N)nc3ccccc3c2n1Cc1ccc(C(=O)NCCO)cc1`, the EC50 in data set [4] came to 50.3 µM.
For `CCCCc1nc2c(N)nc3ccccc3c2n1Cc1ccccc1`, the EC50 in data set [2] is 0.85 µM.
As for `CCCCc1nc2c(N)nc3ccccc3c2n1Cc1ccc(OC)cc1`, the concentration for a half-maximal effect (EC50) in data set [2] came out at 1.83 µM.
For the molecule `CCCCOc1nc(N)c2c(n1)N(Cc1cccc(CN3CCCC3)c1)CC(=O)N2`, the Selectivity ratio in data set [6] worked out at 30.
As for `CCCCc1nc2c(N)nc3ccccc3c2n1Cc1ccc(O)cc1`, in data set [4], the 50% effective concentration (EC50) was 125 µM.
